Laboratory results reported in patent US8192962B2, “Processes for detecting toxic substances” (Daikin Industries, Ltd., priority 2001, dated 2012).

Test system: Metabolism protein genes
Assay: DNA chip mRNA expression in yeast, metabolism protein genes (Table 7)
Type: cell-based, Saccharomyces cerevisiae S288C
Method in brief: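 Cells were grown at 25° C. in YPD, treated at logarithmic phase for 2 h with a chemical at a concentration inhibiting growth but not causing death, and compared with untreated cultures. Labeled cDNA was hybridized to a DNA chip carrying all yeast genes, and the expression ratio was taken from scanner fluorescence.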

For `Cl[C@H]1[C@H](Cl)[C@@H](Cl)[C@@H](Cl)[C@H](Cl)[C@H]1Cl` [(7), γ-hexachlorocyclohexane], the “The level of expressed mRNA in the presence of chemical substance/The level of expressed mRNA in the absence of chemical substance” value (yeast gene YAL012W) was 0.6, the “The level of expressed mRNA in the presence of chemical substance/The level of expressed mRNA in the absence of chemical substance” value (yeast gene YAL038W) was 0.9 and the “level of expressed mRNA in the presence/in the absence of chemical substance” value (yeast gene YBR003W) was 1.1. For the same compound, the “level of expressed mRNA in the presence/in the absence of chemical substance” value (yeast gene YBR011C) was 1.1, the “level of expressed mRNA in the presence/in the absence of chemical substance” value (yeast gene YBR020W) was 0.7 and the “The level of expressed mRNA in the presence of chemical substance/The level of expressed mRNA in the absence of chemical substance” value (yeast gene YBR023C) was 0.7. The “The level of expressed mRNA in the presence of chemical substance/The level of expressed mRNA in the absence of chemical substance” value (yeast gene YBR029C) was 0.4, the “The level of expressed mRNA in the presence of chemical substance/The level of expressed mRNA in the absence of chemical substance” value (yeast gene YBR183W) was 1.7 and the “The level of expressed mRNA in the presence of chemical substance/The level of expressed mRNA in the absence of chemical substance” value (yeast gene YBR222C) was 1.0. The “The level of expressed mRNA in the presence of chemical substance/The level of expressed mRNA in the absence of chemical substance” value (yeast gene YBR256C) was 2.1, the “The level of expressed mRNA in the presence of chemical substance/The level of expressed mRNA in the absence of chemical substance” value (yeast gene YCL009C) was 1.3 and the “The level of expressed mRNA in the presence of chemical substance/The level of expressed mRNA in the absence of chemical substance” value (yeast gene YCL064C) was 13.4. The “level of expressed mRNA in the presence/in the absence of chemical substance” value (yeast gene YCR010C) was 1.3, the “level of expressed mRNA in the presence/in the absence of chemical substance” value (yeast gene YCR034W) was 0.3 and the “The level of expressed mRNA in the presence of chemical substance/The level of expressed mRNA in the absence of chemical substance” value (yeast gene YCR048W) was 0.9. The “The level of expressed mRNA in the presence of chemical substance/The level of expressed mRNA in the absence of chemical substance” value (yeast gene YCR098C) was 1.2, the “The level of expressed mRNA in the presence of chemical substance/The level of expressed mRNA in the absence of chemical substance” value (yeast gene YDR019C) was 1.4 and the “level of expressed mRNA in the presence/in the absence of chemical substance” value (yeast gene YDR050C) was 1.5. For the same compound, the “level of expressed mRNA in the presence/in the absence of chemical substance” value (yeast gene YDR073W) was 1.2, the “level of expressed mRNA in the presence/in the absence of chemical substance” value (yeast gene YDR123C) was 0.9 and the “level of expressed mRNA in the presence/in the absence of chemical substance” value (yeast gene YDR178W) was 0.6. For the same compound, the “level of expressed mRNA in the presence/in the absence of chemical substance” value (yeast gene YDR277C) was 1.2, the “level of expressed mRNA in the presence/in the absence of chemical substance” value (yeast gene YDR284C) was 1.4 and the “level of expressed mRNA in the presence/in the absence of chemical substance” value (yeast gene YDR345C) was 1.1. The “The level of expressed mRNA in the presence of chemical substance/The level of expressed mRNA in the absence of chemical substance” value (yeast gene YDR380W) was 0.5, the “level of expressed mRNA in the presence/in the absence of chemical substance” value (yeast gene YDR400W) was 0.6 and the “level of expressed mRNA in the presence/in the absence of chemical substance” value (yeast gene YDR408C) was 0.8. The “level of expressed mRNA in the presence/in the absence of chemical substance” value (yeast gene YDR483W) was 0.8, the “The level of expressed mRNA in the presence of chemical substance/The level of expressed mRNA in the absence of chemical substance” value (yeast gene YDR497C) was 0.5 and the “The level of expressed mRNA in the presence of chemical substance/The level of expressed mRNA in the absence of chemical substance” value (yeast gene YDR502C) was 0.9. For the same compound, the “The level of expressed mRNA in the presence of chemical substance/The level of expressed mRNA in the absence of chemical substance” value (yeast gene YDR516C) was 3.9, the “level of expressed mRNA in the presence/in the absence of chemical substance” value (yeast gene YEL063C) was 0.7 and the “level of expressed mRNA in the presence/in the absence of chemical substance” value (yeast gene YER015W) was 1.2. The “The level of expressed mRNA in the presence of chemical substance/The level of expressed mRNA in the absence of chemical substance” value (yeast gene YER026C) was 1.6, the “The level of expressed mRNA in the presence of chemical substance/The level of expressed mRNA in the absence of chemical substance” value (yeast gene YER053C) was 2.8 and the “The level of expressed mRNA in the presence of chemical substance/The level of expressed mRNA in the absence of chemical substance” value (yeast gene YER069W) was 1.0. For the same compound, the “level of expressed mRNA in the presence/in the absence of chemical substance” value (yeast gene YER081W) was 0.5, the “The level of expressed mRNA in the presence of chemical substance/The level of expressed mRNA in the absence of chemical substance” value (yeast gene YER096W) was 0.9 and the “level of expressed mRNA in the presence/in the absence of chemical substance” value (yeast gene YER120W) was 0.9. For the same compound, the “The level of expressed mRNA in the presence of chemical substance/The level of expressed mRNA in the absence of chemical substance” value (yeast gene YER178W) was 1.6, the “level of expressed mRNA in the presence/in the absence of chemical substance” value (yeast gene YFL011W) was 0.8 and the “The level of expressed mRNA in the presence of chemical substance/The level of expressed mRNA in the absence of chemical substance” value (yeast gene YFL014W) was 5.5. For the same compound, the “The level of expressed mRNA in the presence of chemical substance/The level of expressed mRNA in the absence of chemical substance” value (yeast gene YFL030W) was 0.6, the “The level of expressed mRNA in the presence of chemical substance/The level of expressed mRNA in the absence of chemical substance” value (yeast gene YFL031W) was 0.9 and the “The level of expressed mRNA in the presence of chemical substance/The level of expressed mRNA in the absence of chemical substance” value (yeast gene YFL056C) was 1.4. For the same compound, the “The level of expressed mRNA in the presence of chemical substance/The level of expressed mRNA in the absence of chemical substance” value (yeast gene YFL057C) was 1.8, the “The level of expressed mRNA in the presence of chemical substance/The level of expressed mRNA in the absence of chemical substance” value (yeast gene YFR047C) was 2.0 and the “level of expressed mRNA in the presence/in the absence of chemical substance” value (yeast gene YGL012W) was 0.9. For the same compound, the “The level of expressed mRNA in the presence of chemical substance/The level of expressed mRNA in the absence of chemical substance” value (yeast gene YGL022W) was 0.7, the “level of expressed mRNA in the presence/in the absence of chemical substance” value (yeast gene YGL115W) was 1.4 and the “level of expressed mRNA in the presence/in the absence of chemical substance” value (yeast gene YGL205W) was 0.8. For the same compound, the “The level of expressed mRNA in the presence of chemical substance/The level of expressed mRNA in the absence of chemical substance” value (yeast gene YGL209W) was 1.0, the “The level of expressed mRNA in the presence of chemical substance/The level of expressed mRNA in the absence of chemical substance” value (yeast gene YGL248W) was 1.6 and the “The level of expressed mRNA in the presence of chemical substance/The level of expressed mRNA in the absence of chemical substance” value (yeast gene YGR037C) was 1.4. For the same compound, the “The level of expressed mRNA in the presence of chemical substance/The level of expressed mRNA in the absence of chemical substance” value (yeast gene YGR055W) was 0.6, the “level of expressed mRNA in the presence/in the absence of chemical substance” value (yeast gene YGR096W) was 0.9 and the “level of expressed mRNA in the presence/in the absence of chemical substance” value (yeast gene YGR191W) was 0.7. The “The level of expressed mRNA in the presence of chemical substance/The level of expressed mRNA in the absence of chemical substance” value (yeast gene YGR194C) was 2.2, the “level of expressed mRNA in the presence/in the absence of chemical substance” value (yeast gene YGR204W) was 0.8 and the “The level of expressed mRNA in the presence of chemical substance/The level of expressed mRNA in the absence of chemical substance” value (yeast gene YGR256W) was 1.4. The “The level of expressed mRNA in the presence of chemical substance/The level of expressed mRNA in the absence of chemical substance” value (yeast gene YGR282C) was 1.1, the “level of expressed mRNA in the presence/in the absence of chemical substance” value (yeast gene YGR288W) was 1.4 and the “level of expressed mRNA in the presence/in the absence of chemical substance” value (yeast gene YHR025W) was 0.8. The “The level of expressed mRNA in the presence of chemical substance/The level of expressed mRNA in the absence of chemical substance” value (yeast gene YHR111W) was 1.6, the “level of expressed mRNA in the presence/in the absence of chemical substance” value (yeast gene YHR123W) was 0.9 and the “The level of expressed mRNA in the presence of chemical substance/The level of expressed mRNA in the absence of chemical substance” value (yeast gene YHR137W) was 0.4. For the same compound, the “The level of expressed mRNA in the presence of chemical substance/The level of expressed mRNA in the absence of chemical substance” value (yeast gene YHR174W) was 1.6, the “The level of expressed mRNA in the presence of chemical substance/The level of expressed mRNA in the absence of chemical substance” value (yeast gene YHR176W) was 1.4 and the “level of expressed mRNA in the presence/in the absence of chemical substance” value (yeast gene YHR210C) was 1.9. The “level of expressed mRNA in the presence/in the absence of chemical substance” value (yeast gene YIL006W) was 0.8, the “The level of expressed mRNA in the presence of chemical substance/The level of expressed mRNA in the absence of chemical substance” value (yeast gene YIL045W) was 1.6 and the “The level of expressed mRNA in the presence of chemical substance/The level of expressed mRNA in the absence of chemical substance” value (yeast gene YIL107C) was 1.6. For the same compound, the “The level of expressed mRNA in the presence of chemical substance/The level of expressed mRNA in the absence of chemical substance” value (yeast gene YIL154C) was 1.3, the “The level of expressed mRNA in the presence of chemical substance/The level of expressed mRNA in the absence of chemical substance” value (yeast gene YIL155C) was 2.2 and the “The level of expressed mRNA in the presence of chemical substance/The level of expressed mRNA in the absence of chemical substance” value (yeast gene YIL167W) was 1.2. The “The level of expressed mRNA in the presence of chemical substance/The level of expressed mRNA in the absence of chemical substance” value (yeast gene YIR034C) was 0.8, the “The level of expressed mRNA in the presence of chemical substance/The level of expressed mRNA in the absence of chemical substance” value (yeast gene YIR036C) was 1.0 and the “The level of expressed mRNA in the presence of chemical substance/The level of expressed mRNA in the absence of chemical substance” value (yeast gene YJL031C) was 2.3. For the same compound, the “The level of expressed mRNA in the presence of chemical substance/The level of expressed mRNA in the absence of chemical substance” value (yeast gene YJL068C) was 1.2, the “The level of expressed mRNA in the presence of chemical substance/The level of expressed mRNA in the absence of chemical substance” value (yeast gene YJL099W) was 1.8 and the “level of expressed mRNA in the presence/in the absence of chemical substance” value (yeast gene YJL121C) was 0.7. The “level of expressed mRNA in the presence/in the absence of chemical substance” value (yeast gene YJL167W) was 1.5, the “The level of expressed mRNA in the presence of chemical substance/The level of expressed mRNA in the absence of chemical substance” value (yeast gene YJL172W) was 1.0 and the “level of expressed mRNA in the presence/in the absence of chemical substance” value (yeast gene YJL216C) was 1.5. For the same compound, the “The level of expressed mRNA in the presence of chemical substance/The level of expressed mRNA in the absence of chemical substance” value (yeast gene YJL219W) was 0.9, the “level of expressed mRNA in the presence/in the absence of chemical substance” value (yeast gene YJR077C) was 0.7 and the “The level of expressed mRNA in the presence of chemical substance/The level of expressed mRNA in the absence of chemical substance” value (yeast gene YJR137C) was 0.8. The “level of expressed mRNA in the presence/in the absence of chemical substance” value (yeast gene YJR143C) was 0.5, the “The level of expressed mRNA in the presence of chemical substance/The level of expressed mRNA in the absence of chemical substance” value (yeast gene YJR148W) was 2.1 and the “The level of expressed mRNA in the presence of chemical substance/The level of expressed mRNA in the absence of chemical substance” value (yeast gene YJR155W) was 1.7.
